According to ChEMBL document CHEMBL1201862, “PubChem BioAssay data set” (2004):
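Compound exposure: 48 hours, 5 concentrations, 96-well plates. The concentration for 50% growth inhibition is given as GI50.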 Active and inactive are the calls of the source. Cut-off read from the data, not from the text of the source: active = GI50 up to about 1.1 µM and inactive = higher.

Columns and labels:
Experiment in all cases: growth of human tumour cells (NCI), 48 h
LOX IMVI = test system: LOX IMVI
NCI-H460 = test system: NCI-H460
HL-60 = test system: HL-60
OVCAR-8 = test system: OVCAR-8
OVCAR-3 = test system: OVCAR-3
M14 = test system: M14
KM12 = test system: KM12
COLO 205 = test system: COLO 205
EKVX = test system: EKVX
SNB-75 = test system: SNB-75
Hs-578T = test system: Hs-578T
RPMI-8226 = test system: RPMI-8226
MCF7 = test system: MCF7
BT-549 = test system: BT-549
SR = test system: SR
T47D = test system: T47D
HCT-116 = test system: HCT-116
UACC-62 = test system: UACC-62
OVCAR-4 = test system: OVCAR-4

SMILES	GI50 (LOX IMVI)	GI50 (NCI-H460)	GI50 (HL-60)	GI50 (OVCAR-8)	GI50 (OVCAR-3)	GI50 (M14)	GI50 (KM12)	GI50 (COLO 205)	GI50 (EKVX)	GI50 (SNB-75)	GI50 (Hs-578T)	GI50 (RPMI-8226)	GI50 (MCF7)	GI50 (BT-549)	GI50 (SR)	GI50 (T47D)	GI50 (HCT-116)	GI50 (UACC-62)	GI50 (OVCAR-4)
C/C(=N\NC(=S)N1CCCCCC1)c1cccc2cccnc12	0.767 µM (active)	0.681 µM (active)	1.25 µM (inactive)	1.38 µM (inactive)	0.0203 µM (active)	1.55 µM (inactive)	1.42 µM (inactive)	0.459 µM (active)	1.29 µM (inactive)	23 µM (inactive)	19.7 µM (inactive)	0.109 µM (active)	0.984 µM (active)	16 µM (inactive)	< 0.01 µM (active)	0.966 µM (active)	0.634 µM (active)	–	–
N#Cc1ccc(C(O)C(F)(F)c2nc3ccccc3o2)cc1 (stereo unspecified)	42.9 µM (inactive)	> 100 µM (inactive)	43.6 µM (inactive)	98.6 µM (inactive)	–	55.2 µM (inactive)	96.2 µM (inactive)	> 100 µM (inactive)	> 100 µM (inactive)	> 100 µM (inactive)	> 100 µM (inactive)	31.2 µM (inactive)	46.1 µM (inactive)	71.4 µM (inactive)	86.9 µM (inactive)	37.2 µM (inactive)	92.3 µM (inactive)	40.9 µM (inactive)	95.5 µM (inactive)
COC(=O)c1ccc(Oc2nc3ccccc3nc2-c2cccs2)cc1	> 100 µM (inactive)	33.7 µM (inactive)	> 100 µM (inactive)	51.8 µM (inactive)	> 100 µM (inactive)	89.5 µM (inactive)	> 100 µM (inactive)	> 100 µM (inactive)	> 100 µM (inactive)	7.83 µM (inactive)	19.5 µM (inactive)	–	3.16 µM (inactive)	45.7 µM (inactive)	48.5 µM (inactive)	60.8 µM (inactive)	41.3 µM (inactive)	40.6 µM (inactive)	> 100 µM (inactive)
COC(=O)c1c(C(=O)OC)c2c3ccccc3n(C)c2c2c1c1ccccc1n2C	> 100 µM (inactive)	> 100 µM (inactive)	–	> 100 µM (inactive)	–	> 100 µM (inactive)	> 100 µM (inactive)	> 100 µM (inactive)	47.1 µM (inactive)	25.8 µM (inactive)	> 100 µM (inactive)	> 100 µM (inactive)	> 100 µM (inactive)	> 100 µM (inactive)	> 100 µM (inactive)	> 100 µM (inactive)	> 100 µM (inactive)	> 100 µM (inactive)	31.4 µM (inactive)
O=C(NN1C(=O)C(Cl)C1c1ccc(Cl)cc1)c1c(Cl)c(Cl)c(Cl)c(Cl)c1-c1nc2ccccc2[nH]1 (stereo unspecified)	16.5 µM (inactive)	16.7 µM (inactive)	25.4 µM (inactive)	17.8 µM (inactive)	27.8 µM (inactive)	20.8 µM (inactive)	31.4 µM (inactive)	18.3 µM (inactive)	20.7 µM (inactive)	19.2 µM (inactive)	41.5 µM (inactive)	–	12.7 µM (inactive)	24.4 µM (inactive)	16.6 µM (inactive)	< 0.01 µM (active)	15.5 µM (inactive)	15.7 µM (inactive)	–
O=C1C(Cl)C2(CC(/C=C/c3ccccc3O)=NN2c2cccc(S(=O)(=O)O)c2)N1c1nc2ccccc2s1 (stereo unspecified)	9.62 µM (inactive)	15.1 µM (inactive)	3.54 µM (inactive)	24.3 µM (inactive)	–	18.3 µM (inactive)	14.8 µM (inactive)	18.9 µM (inactive)	18.6 µM (inactive)	38.8 µM (inactive)	23.9 µM (inactive)	12.1 µM (inactive)	15.4 µM (inactive)	18.1 µM (inactive)	15.3 µM (inactive)	17.4 µM (inactive)	15.4 µM (inactive)	15.2 µM (inactive)	13.4 µM (inactive)
COC(=O)CC(C#N)(OP1(=O)OC(c2ccccc2)C(C)N1C)c1ccccc1 (stereo unspecified)	21 µM (inactive)	20.4 µM (inactive)	23.8 µM (inactive)	22.8 µM (inactive)	18.8 µM (inactive)	31.3 µM (inactive)	20.6 µM (inactive)	34.5 µM (inactive)	21.7 µM (inactive)	43.4 µM (inactive)	30.3 µM (inactive)	25.1 µM (inactive)	28.2 µM (inactive)	36.2 µM (inactive)	25.9 µM (inactive)	28.1 µM (inactive)	24.2 µM (inactive)	19.8 µM (inactive)	–
COc1ccc(-c2nc(N(C)C)c3ccccc3n2)cc1	11 µM (inactive)	10.8 µM (inactive)	12.4 µM (inactive)	11.3 µM (inactive)	–	14.1 µM (inactive)	13.4 µM (inactive)	10.1 µM (inactive)	3.66 µM (inactive)	13.5 µM (inactive)	13.5 µM (inactive)	5.56 µM (inactive)	11 µM (inactive)	14.2 µM (inactive)	10.8 µM (inactive)	10.8 µM (inactive)	4.57 µM (inactive)	12.7 µM (inactive)	32.6 µM (inactive)
